The results in this text go back to patent publication US20040121965A1, “Method of treating resistant tumors” (Wyeth Holdings Corporation, priority 2002, published 2004).

Where two headings read alike, the source gives them in different places.

The subject of data set [1] is KB-3-1. Briefly: Cell survival assay (SRB), KB-3-1. The data set is classed as cell-based, human. The procedure, abridged:
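Growth inhibition (IC50) is derived from SRB-measured protein content after a 3-day, duplicate exposure to serially diluted compound.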

In data set [2] the test system is KB-8-5 (MDR1+).
Data set [3] concerns KB-V1 (MDR1++).
Data set [4] deals with KB-8-5 (MDR1+). Briefly: Cell survival assay (SRB), KB-8-5 (MDR1+). Particulars: for RR, relative resistance: IC50 KB-8-5 / IC50 KB-3-1, Table 3; for IC50: Homo sapiens.
The test system of data set [5] is KB-V1 (MDR1++). The data set is described as follows: Cell survival assay (SRB), KB-V1 (MDR1++). Particulars: for RR, relative resistance: IC50 KB-V1 / IC50 KB-3-1, Table 3; for IC50: Homo sapiens.
Data set [6] relates to KB-PTX-15+099. The data set is described as follows: Cell survival assay, KB-PTX-15+099 (paclitaxel-resistant, non-MDR). The data set is classed as cell-based, human. Particulars: for Average Relative Resistance (RR): IC50 KB-PTX-15+099 / IC50 KB-3-1, less than 1 = increased sensitivity; for IC50: KB-PTX-15+099, Table 6, read-out: KB-PTX-15+099 IC50.
For data set [7], the system named is KB-HTI-4.0. Briefly: Cell survival assay, KB-3-1 line made resistant to Example 129 (KB-HTI-4.0). Particulars: for IC50: KB-3-1 line made resistant to Example 129, Table 8, read-out: KB-HTI-4.0 IC50; for (RR) relative resistance vs. parental cells: KB-HTI-4.0 vs KB-3-1. The data set is classed as cell-based, human. The source says:
(§1) Cells lines with previously known mechanisms of resistance. […] Res. 8: 207-218,1996); KB-3-1 (parental derived from an epidermoid carcinoma), KB-8.5, KB-V1 (Akiyama S-I, Fojo A, Hanover J A, Pastan I, Gottesman M M. Isolation and genetic characterization of human KB cell lines resistant to multiple drugs. Somatic Cell Mol. Gen., 11: 117-126,1985; Shen D-W, Cardarelli C, Hwang J, Cornwell M, Richert N, Ishii S, Pastan I, Gottesman MM. […] J. Biol. Chem., 261: 7762-7770, 1986); and HL-60 (parental derived from human leukemia) and HL60/AR (McGrath T., Center M. S. Adriamycin resistance in HL60 cells in the absence of detectable P-glycoprotein. Biochem. Res. Commun., 145:1171-1176,1987); A549 and A549.EpoB40 (He L., Yang C.-P.H., Horwitz S. B. Mutations in p-tubulin map to domains involved in regulation of microtubule stability in epothilone-resistant cell lines. Molecular Cancer Therapeutics. 1: 3-10, 2001). HCT-15 human colon carcinoma and DLD-1 human colon carcinoma are obtained from American Tissue Culture Collection. The MX-1W carcinoma is a Wyeth variant orginally obtained as MX-1 breast carcinoma from the National Cancer Institute. Cell lines selected for resistance to Representative Example 129. KB-3-1 cells are selected for resistance to Example 129 by chronically exposing cells to increasing concentrations of Example 129.
(§2) 2.2. Cell Survival Assay: Standard Pharmacological Test Procedure. The concentration of candidate inhibitor required to inhibit 50% of cell growth (IC50) is done according to previously reported methods. […] Compounds are serially diluted into media as 2× stocks and 100 μl added to cells in duplicate. Compounds are incubated with cells for 3 days. At the end of the incubation period the sulforhodamine B (SRB) assay, which measures protein content as an assessment of cell survival, is performed as described previously (Skehan P, Storeng R, Scudiero D, Monks A, McMahon J, Vistica D, Warren J T, Bokesch H, Kenney S, Boyd MR. New calorimetric cytotoxicity assay for anticancer-drug screening. J Natl Cancer Inst 1990 Jul 4;82(13):1107-12) with some modification as follows. For KB-3-1 cells with 20% FCS, media is gently decanted and replaced with 200 μl of serum-free media mixed with cold 50% TCA for a final concentration of 10% TCA. The plates are incubated for 1 hr at 4° C., followed by washing 5 times in cold distilled water, then air dried overnight. The fixed cells are stained for 10 min with 80 μl of 0.04% SRB solution prepared in 1% glacial acetic acid. Stain is discarded and plates washed 5 times in 1% glacial acetic acid, then air-dried until completely dry. Stained cell product is dissolved in 150 μl of 10 mM Trizma Base and placed on a shaker for 20 minutes until fully dissolved. Absorbance is read on a Victor V multi-label plate reader (Perkin Elmer, Gaithersburg, Md.).
Cells are selected for resistance to Example 129 to understand the frequency and mechanistic basis of resistance.

In data set [8] the test system is Human Melanoma Carcinoma Lox. Particulars: staged LOX xenograft; at MTD ('<': MTD not achieved); days 11-15. On the procedure:
2.4. Growth of Tumors in Nude Mice. […] In these experiments, xenografts are implanted subcutaneously into the flanks of nude mice. […] Relative tumor mass compared to controls are assessed during the 21-day post-staging period.
Groups of 5 female nu/nu mice are injected with 1.5×10^6 KB-3-1 (A) or Lox cells (B). […] Relative tumor growth is determined during the experiment and % T/C calculated. Statistical analyses are Student's t-test of treated time points vs. vehicle (*, P<0.05; **, P<0.01)

Data set [9] deals with MX-1W tumor. The data set is described as follows: Growth of tumors in nude mice, MX-1W xenograft. The data set is classed as in vivo. The source says: 2.4. Growth of Tumors in Nude Mice.
Data set [10] has as its system tumor cell lines. Briefly: cells. The data set is classed as cell-based. Particulars: Five micromolar.
Excerpt: as §1, §2

Setting [11] is: KB-3-1 cells (paclitaxel-sensitive parent), read-out: In vitro IC50 (nM) KB-3-1.
Setting [12] is: Homo sapiens, KB 3-1, 72 h, amount of drug needed to kill 50% of cells after three days continuous exposure, Table 11, read-out: IC50 in parental cell line KB-3-1.
Where [13] appears, read: Homo sapiens, KB 3-1, KB-3-1 cells (paclitaxel-sensitive parent), read-out: In vitro IC50 (nM) KB-3-1.
Setting [14] is: MDR1, read-out: In vitro IC50 (nM) KB85.
Where [15] appears, read: read-out: In vitro IC50 (nM) KBV1.

For `CCOC(=O)/C(C)=C/[C@H](C(C)C)N(C)C(=O)[C@@H](NC(=O)[C@H](NC)C(C)(C)c1ccc(C)c(C)c1)C(C)(C)C` [Example 13b, N,β,β-3,4-pentamethyl-D-phenylalanyl-N^1-[(1S,2E)4-ethoxy-1-isopropyl-3-methyl4-oxo-2-butenyl]-N^1,3-dimethyl-L-valinamide], the IC50 in [1] (setting [11]) is 295 nM; in data set [2], 1410 nM; in data set [3], no less than 3000 nM. Also, in [4], the “Ratio KB85/KB” value was determined as 4.8. Further, the “Ratio KBV1/KB” value in data set [5] is reported as 10.2.
For “(2E,4S)4-[{(2R)-2-cyclohexyl-2-[(N,β,1-trimethyl-L-phenylalanyl)amino]ethanoyl}(methyl)amino]-2,5-dimethylhex-2-enoic Acid Trifluoroacetic Acid [Example 98]”, the IC50 in [1] (setting [11]) amounted to 133 nM; in data set [2] it was 186 nM; in data set [3] it was 2940 nM.
As to `CC[C@H](C)[C@@H]([C@@H](CC(=O)N1CCC[C@H]1[C@H](OC)[C@@H](C)C(=O)N[C@@H](Cc1ccccc1)c1nccs1)OC)N(C)C(=O)[C@@H](NC(=O)[C@H](C(C)C)N(C)C)C(C)C` [dolastatin-10], the IC50 turned out to be 0.041 ± 0.01 nM in data set [1] (KB-3-1, Table 6, read-out: KB-3-1 IC50); 0.03 ± 0.02 nM in [1] (KB-3-1 parental, Table 8, read-out: KB-3-1 IC50); 0.012 ± 0.004 nM in [6]; 0.83 ± 0.33 nM in data set [7]. Also, the “Average Relative Resistance (RR)” value in [6] is listed as “(0.30)”. Also, the “increased sensitivity of KB-PTX-15+099 cells” value in [6] (vs KB-3-1) was 3.4 fold. Further, the “(RR) relative resistance vs. parental cells” value in data set [7] is recorded as “(28)”. For the same molecule, the “RR, relative resistance” value is reported as 7.1 in data set [4] and 573 in [5].
As for `CC(=O)O[C@@]12CO[C@@H]1C[C@H](O)[C@@]1(C)C(=O)[C@H](O)C3=C(C)[C@@H](OC(=O)[C@H](O)[C@@H](NC(=O)OC(C)(C)C)c4ccccc4)C[C@@](O)([C@@H](OC(=O)c4ccccc4)[C@H]21)C3(C)C` [docetaxel, reference compound], the IC50 in data set [1] (setting [12]) was 0.6 nM; in data set [1] (Homo sapiens, KB-3-1, Table 6, read-out: KB-3-1 IC50), 0.594 ± 0.098 nM; in [1] (Homo sapiens, KB-3-1 parental, Table 3, read-out: KB-3-1 IC50, nM (N)) it was 0.55 ± 0.45 nM; in [1] (Homo sapiens, KB-3-1 parental, Table 8, read-out: KB-3-1 IC50), 0.44 ± 0.2 nM; in [6] (Homo sapiens) it was 4.49 ± 1.91 nM; in data set [7] (Homo sapiens) it was 1.25 ± 0.76 nM. For the same molecule, the IC50 was found to be 9.7 ± 6.6 nM in data set [4] (MDR1, read-out: KB-8-5 (MDR1+) IC50, nM (N)) and 368 ± 257 nM in data set [5] (read-out: KB-V1 (MDR1++) IC50, nM (N)). The “Average Relative Resistance (RR)” value in data set [6] is “(7.6)”. Also, the “resistance of KB-PTX-15+099 cells” value in data set [6] (vs KB-3-1) was 7.6 fold. Moreover, in [7], the “(RR) relative resistance vs. parental cells” value is on record as “(3)”. The “RR, relative resistance” value in [4] is reported as 18; in data set [5], 669. For the same molecule, in data set [4] (KB-8-5 (KB-85) vs KB-3-1, in vitro), the “resistance of KB-8-5 cells” value is recorded as 18 fold.
Consider “N,β,β-trimethyl-L-phenylalanyl-N^1-{(1S,2E)-4-[[(1S,2E)-3-carboxy-1-isopropylbut-2-enyl](methyl)amino]-1-isopropyl-3-methyl-4-oxobut-2-enyl-N^1,3-dimethyl-L-valinamide [Example 114]”, for which the figures for the half-inhibitory concentration (IC50) in data set [1] (setting [11]), in data set [2] and in data set [3] were 55 nM, 192 nM and greater than 3000 nM, respectively. In data set [4], the “Ratio KB85/KB” value came out at 3.5.
For the molecule `CN[C@H](C(=O)N[C@H](C(=O)N(C)[C@H](/C=C(\C)C(=O)O)C(C)C)C(C)(C)C)C(C)(C)c1cccc(C)c1` [Example 8, N,β,β,3-Tetramethyl-L-phenylalanyl-N^1-[(1S,2E)-3-carboxy-1-isopropyl-2-butenyl]-N^1,3-dimethyl-L-valinamide], the half-inhibitory concentration (IC50) in data set [1] (setting [12]) amounted to 0.3 nM; in data set [1] (setting [13]) it was 0.274 nM; in [4] (setting [14]), 0.699 nM; in data set [5] (setting [15]), 18.7 nM. In addition, the “Activity in nude mice animal model (% T/C @ MTD on days 11-15) LOX” value in data set [8] was found to be 2%. Also, the “effect on growth of MX-1W (paclitaxel-resistant) tumor” value in [9] (mouse, in vivo) was “inhibited the growth”. Moreover, in data set [9] (staged MX-1W xenograft, at MTD, days 11-15), the “Activity in nude mice animal model (% T/C @ MTD on days 11-15) MX-1W” value came out at 9%. In addition, the “Ratio KB85/KB” value in data set [4] was 2.6. In addition, the “Ratio KBV1/KB” value in data set [5] amounted to 68.5.
Take `COc1ccc(C(C#N)(CCCCCN2CCc3cc(OC)c(OC)cc3C2)Sc2ccc(C)cc2)cc1OC` (stereo not shown): the “effect on cell growth when given alone” value in data set [10] (KB-3-1, KB-85, KB-V1 (Table 4)) is listed as “# has no inhibitory effect on cell growth when given alone. Data are the mean of two experiments”; in data set [10] (MX-1W, DLD-1, HCT-15 (Table 2)) it was “# Five micromolar 7-(6,7-dimethoxy-3,4-dihydro-1H-isoquinolin-2-yl)-2(3,4-dimethoxy-phenyl)-2-p-tolysulfanyl-heptanenitrile has no inhibitory effect on cell growth when given alone”.
For “(E,4S)-4-[((2S)-3,3-dimethyl-2-{[(2S)-3-methyl-2-(methylamino)-3-(1-methyl-1H-ethyl-1H-indol-3-yl)butanoyl]amino}butanoyl)amino]-2,5-dimethyl-2-hexenoic Acid [Example 132]”, the 50% inhibitory concentration (IC50) turned out to be 0.51 nM in data set [1] (setting [11]) and 890 nM in [3].
On to “(2E,4S)-2,5-dimethyl4-(methyl{(2S)-2-[(N,β,1-trimethyl-L-phenylalanyl)amino]butanoyl}amino)hex-2-enoic Acid Trifluoroacetic Acid [Example 99]”, for which the IC50 came to 60 nM in data set [1] (setting [11]), 87 nM in data set [2] and 1320 nM in data set [3].
Turning to `CN[C@@H](C(=O)N[C@H](C(=O)N(C)[C@H](/C=C(\C)C(=O)O)C(C)C)C(C)(C)C)C(C)(C)c1cc(F)cc(F)c1` [Example 65, 3,5-Difluoro-N,β,β-trimethyl-D-phenylalanyl-N^1-[(1S,2E)-3-carboxy-1-isopropylbut-2-enyl]-N^1,3-dimethyl-L-valinamide], the IC50 in data set [1] (setting [12]) came out at 2 nM; in data set [1] (setting [13]), 2 nM; in data set [4] (setting [14]), 2.9 nM; in data set [5] (setting [15]) it was 77.6 nM. In addition, the “Activity in nude mice animal model (% T/C @ MTD on days 11-15) LOX” value in data set [8] was 8%. In addition, the “Ratio KB85/KB” value in [4] amounted to 1.5. The “Ratio KBV1/KB” value in [5] is given as 38.8.

As usually defined, the IC50 is the concentration needed to halve the response being measured.
